Test results as given in PubChem BioAssay (NCI).
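These data come from cells grown in 96-well plates and exposed to compound for 48 hours at five concentrations. TGI denotes the concentration required for complete inhibition of growth.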

What was measured:
Experiment in all cases: NCI anticancer screen, dose series, 48 h
[1] = test system: 786-0 renal
[2] = test system: A498 renal
[3] = test system: A549 NSCLC
[4] = test system: ACHN renal
[5] = test system: BT-549 breast
[6] = test system: CAKI-1 renal
[7] = test system: CCRF-CEM leukemia
[8] = test system: COLO 205 colon
[9] = test system: DLD-1 colon
[10] = test system: DMS 114 small cell lung
[11] = test system: DMS 273 small cell lung
[12] = test system: DU-145 prostate
[13] = test system: EKVX NSCLC
[14] = test system: HCC-2998 colon
[15] = test system: HCT-116 colon
[16] = test system: HCT-15 colon
[17] = test system: HL-60(TB) leukemia
[18] = test system: HOP-18 NSCLC
[19] = test system: HOP-92 NSCLC
[20] = test system: HS 578T breast
[21] = test system: HT29 colon
[22] = test system: IGROV1 ovarian
[23] = test system: K-562 leukemia
[24] = test system: KM12 colon
[25] = test system: LOX IMVI melanoma
[26] = test system: LXFL 529 NSCLC
[27] = test system: M14 melanoma
[28] = test system: M19-MEL melanoma
[29] = test system: MALME-3M melanoma
[30] = test system: MCF7 breast
[31] = test system: MDA-MB-231 breast
[32] = test system: MDA-MB-435
[33] = test system: MDA-N
[34] = test system: MOLT-4 leukemia
[35] = test system: NCI-H226 lung
[36] = test system: NCI-H23 lung
[37] = test system: NCI-H460 lung
[38] = test system: NCI-H522 lung
[39] = test system: NCI/ADR-RES ovarian
[40] = test system: OVCAR-3 ovarian
[41] = test system: OVCAR-4 ovarian
[42] = test system: OVCAR-5 ovarian
[43] = test system: OVCAR-8 ovarian
[44] = test system: PC-3 prostate
[45] = test system: RPMI-8226 leukemia
[46] = test system: RXF 393 renal
[47] = test system: SF-268 CNS
[48] = test system: SF-295 CNS
[49] = test system: SF-539 CNS
[50] = test system: SK-MEL-2 melanoma
[51] = test system: SK-MEL-28 melanoma
[52] = test system: SK-MEL-5 melanoma
[53] = test system: SK-OV-3 ovarian
[54] = test system: SN12C renal
[55] = test system: SNB-19 CNS
[56] = test system: SNB-75 CNS
[57] = test system: SNB-78 CNS
[58] = test system: SR leukemia
[59] = test system: SW-620 colon
[60] = test system: T-47D breast
[61] = test system: TK-10 renal
[62] = test system: U251 CNS
[63] = test system: UACC-257 melanoma
[64] = test system: UACC-62 melanoma
[65] = test system: UO-31 renal
[66] = test system: XF 498 CNS

Cn1c(Cl)cn2c3nc4ccccc4nc3c(=O)c(C#N)c12 showed a TGI [1] greater than 100 µM, a TGI [2] of 98.8 µM and a TGI [3] greater than 100 µM. The TGI [4] was greater than 100 µM, the TGI [5] was greater than 100 µM and the TGI [6] was greater than 100 µM. The TGI [7] was greater than 100 µM, the TGI [8] was greater than 100 µM and the TGI [9] was greater than 100 µM. For the same compound, the TGI [10] was greater than 100 µM, the TGI [11] was greater than 100 µM and the TGI [12] was greater than 100 µM. The TGI [13] was greater than 100 µM, the TGI [14] was greater than 67.8 µM and the TGI [15] was greater than 100 µM. For the same compound, the TGI [16] was greater than 100 µM, the TGI [17] was greater than 100 µM and the TGI [18] was greater than 100 µM. The TGI [19] was greater than 100 µM, the TGI [20] was greater than 100 µM and the TGI [21] was greater than 100 µM. The TGI [22] was greater than 100 µM, the TGI [23] was greater than 100 µM and the TGI [24] was greater than 100 µM. The TGI [25] was greater than 100 µM, the TGI [26] was greater than 100 µM and the TGI [27] was greater than 100 µM. It also gave a TGI [28] greater than 100 µM, a TGI [29] greater than 100 µM and a TGI [30] greater than 100 µM. It also gave a TGI [31] greater than 100 µM, a TGI [32] greater than 100 µM and a TGI [33] greater than 100 µM. It also gave a TGI [34] greater than 100 µM, a TGI [35] greater than 100 µM and a TGI [36] greater than 100 µM. For the same compound, the TGI [37] was greater than 100 µM, the TGI [38] was greater than 100 µM and the TGI [39] was greater than 100 µM. The TGI [40] was greater than 100 µM, the TGI [41] was greater than 100 µM and the TGI [42] was greater than 100 µM. It also gave a TGI [43] greater than 100 µM, a TGI [44] greater than 100 µM and a TGI [45] greater than 100 µM. It also gave a TGI [46] greater than 100 µM, a TGI [47] greater than 100 µM and a TGI [48] greater than 100 µM. It also gave a TGI [49] greater than 100 µM, a TGI [50] greater than 100 µM and a TGI [51] greater than 100 µM. For the same compound, the TGI [52] was greater than 100 µM, the TGI [53] was greater than 100 µM and the TGI [54] was greater than 100 µM. For the same compound, the TGI [55] was greater than 100 µM, the TGI [56] was greater than 81.5 µM and the TGI [57] was greater than 100 µM. It also gave a TGI [58] greater than 100 µM, a TGI [59] greater than 100 µM and a TGI [60] greater than 100 µM. It also gave a TGI [61] greater than 100 µM, a TGI [62] greater than 100 µM and a TGI [63] greater than 100 µM. It also gave a TGI [64] greater than 100 µM, a TGI [65] greater than 100 µM and a TGI [66] greater than 100 µM.
